Values after ≈ are worked out from the molar mass of the structure shown.
Key:
Type in all cases: functional
Enterococcus faecalis [1] = test: Antibacterial activity against Enterococcus faecalis after 16 hrs by agar dilution method
Streptococcus pneumoniae = test: Antibacterial activity against penicillin-resistant Streptococcus pneumoniae after 16 hrs by agar dilution method
Staphylococcus aureus [2] = test: Antibacterial activity against Staphylococcus aureus ATCC 29213 after 16 hrs by agar dilution method; conditions: ATCC 29213, 16 h
[3] = tested on: Staphylococcus epidermidis; test: Antibacterial activity against methicillin-resistant Staphylococcus epidermidis after 16 hrs by agar dilution method
Staphylococcus aureus [4] = test: Antibacterial activity against methicillin-resistant Staphylococcus aureus after 16 hrs by agar dilution method
Staphylococcus aureus [5] = test: Antibacterial activity against linezolid-resistant Staphylococcus aureus after 16 hrs by agar dilution method
Enterococcus faecalis [6] = test: Antibacterial activity against linezolid-resistant Enterococcus faecalis after 16 hrs by agar dilution method
[7] = tested on: Staphylococcus epidermidis; test: Antibacterial activity against linezolid-resistant Staphylococcus epidermidis after 16 hrs by agar dilution method
Enterococcus faecium = test: Antibacterial activity against linezolid-resistant Enterococcus faecium after 16 hrs by agar dilution method

Compound: CC(=O)NC[C@@H]1OC(=O)N2c3ccc(N4CCOCC4)cc3OC[C@@H]12
- MIC (Enterococcus faecalis [1]): 8 µg/mL (≈ 23 µM)
- MIC (Streptococcus pneumoniae): 8 µg/mL (≈ 23 µM)
- MIC (Staphylococcus aureus [2]): 4 µg/mL (≈ 11.5 µM)
- MIC [3]: 4 µg/mL (≈ 11.5 µM)
- MIC (Staphylococcus aureus [4]): 4 µg/mL (≈ 11.5 µM)

Compound: CC(=O)NC[C@@H]1OC(=O)N2c3ccc(N4CCN(Cc5cccc([N+](=O)[O-])c5)CC4)cc3OC[C@@H]12
- MIC (Enterococcus faecalis [1]): > 16 µg/mL
- MIC (Streptococcus pneumoniae): > 16 µg/mL
- MIC (Staphylococcus aureus [2]): > 16 µg/mL
- MIC [3]: > 16 µg/mL
- MIC (Staphylococcus aureus [4]): > 16 µg/mL

Compound: CC(=O)NC[C@@H]1OC(=O)N2c3ccc(N4CCN(Cc5ccccc5[N+](=O)[O-])CC4)cc3OC[C@@H]12
- MIC (Enterococcus faecalis [1]): > 16 µg/mL
- MIC (Streptococcus pneumoniae): > 16 µg/mL
- MIC (Staphylococcus aureus [2]): 8 µg/mL (≈ 16.6 µM)
- MIC [3]: 8 µg/mL (≈ 16.6 µM)
- MIC (Staphylococcus aureus [4]): 8 µg/mL (≈ 16.6 µM)

Compound: CC(=O)NC[C@@H]1OC(=O)N2c3ccc(N4CCN(Cc5ccncc5)CC4)cc3OC[C@@H]12
- MIC (Enterococcus faecalis [1]): > 16 µg/mL
- MIC (Streptococcus pneumoniae): > 16 µg/mL
- MIC (Staphylococcus aureus [2]): 16 µg/mL (≈ 36.6 µM)
- MIC [3]: > 16 µg/mL
- MIC (Staphylococcus aureus [4]): > 16 µg/mL

Compound: CC(=O)NC[C@@H]1OC(=O)N2c3ccc(N4CCN(Cc5cccnc5)CC4)cc3OC[C@@H]12
- MIC (Enterococcus faecalis [1]): > 16 µg/mL
- MIC (Streptococcus pneumoniae): > 16 µg/mL
- MIC (Staphylococcus aureus [2]): 16 µg/mL (≈ 36.6 µM)
- MIC [3]: > 16 µg/mL
- MIC (Staphylococcus aureus [4]): > 16 µg/mL

Compound: CC(=O)NC[C@@H]1OC(=O)N2c3ccc(N4CCN(Cc5ccccn5)CC4)cc3OC[C@@H]12
- MIC (Enterococcus faecalis [1]): > 16 µg/mL
- MIC (Streptococcus pneumoniae): > 16 µg/mL
- MIC (Staphylococcus aureus [2]): 16 µg/mL (≈ 36.6 µM)
- MIC [3]: > 16 µg/mL
- MIC (Staphylococcus aureus [4]): > 16 µg/mL

Compound: CC(=O)NC[C@@H]1OC(=O)N2c3ccc(N4CCN(Cc5ccco5)CC4)cc3OC[C@@H]12
- MIC (Enterococcus faecalis [1]): > 16 µg/mL
- MIC (Streptococcus pneumoniae): > 16 µg/mL
- MIC (Staphylococcus aureus [2]): > 16 µg/mL
- MIC [3]: > 16 µg/mL
- MIC (Staphylococcus aureus [4]): 16 µg/mL (≈ 37.5 µM)

Compound: CC(=O)NC[C@@H]1OC(=O)N2c3ccc(N4CCN(Cc5ccoc5)CC4)cc3OC[C@@H]12
- MIC (Enterococcus faecalis [1]): > 16 µg/mL
- MIC (Streptococcus pneumoniae): > 16 µg/mL
- MIC (Staphylococcus aureus [2]): 16 µg/mL (≈ 37.5 µM)
- MIC [3]: 8 µg/mL (≈ 18.8 µM)
- MIC (Staphylococcus aureus [4]): > 8 µg/mL

Compound: CC(=O)NC[C@@H]1OC(=O)N2c3ccc(N4CCN(Cc5ccc([N+](=O)[O-])o5)CC4)cc3OC[C@@H]12
- MIC (Enterococcus faecalis [1]): > 16 µg/mL
- MIC (Streptococcus pneumoniae): > 8 µg/mL
- MIC (Staphylococcus aureus [2]): 4 µg/mL (≈ 8.48 µM)
- MIC [3]: 2 µg/mL (≈ 4.24 µM)
- MIC (Staphylococcus aureus [4]): 4 µg/mL (≈ 8.48 µM)

Compound: CC(=O)NC[C@@H]1OC(=O)N2c3ccc(-c4cccs4)cc3OC[C@@H]12
- MIC (Enterococcus faecalis [1]): 4 µg/mL (≈ 11.6 µM)
- MIC (Streptococcus pneumoniae): 1 µg/mL (≈ 2.9 µM)
- MIC (Staphylococcus aureus [2]): 1 µg/mL (≈ 2.9 µM)
- MIC [3]: 1 µg/mL (≈ 2.9 µM)
- MIC (Staphylococcus aureus [4]): 1 µg/mL (≈ 2.9 µM)

Compound: CC(=O)NC[C@@H]1OC(=O)N2c3ccc(-c4ccsc4)cc3OC[C@@H]12
- MIC (Enterococcus faecalis [1]): 4 µg/mL (≈ 11.6 µM)
- MIC (Streptococcus pneumoniae): 2 µg/mL (≈ 5.81 µM)
- MIC (Staphylococcus aureus [2]): 2 µg/mL (≈ 5.81 µM)
- MIC [3]: 2 µg/mL (≈ 5.81 µM)
- MIC (Staphylococcus aureus [4]): 2 µg/mL (≈ 5.81 µM)

Compound: CC(=O)NC[C@@H]1OC(=O)N2c3ccc(-c4ccccc4)cc3OC[C@@H]12
- MIC (Enterococcus faecalis [1]): 2 µg/mL (≈ 5.91 µM)
- MIC (Streptococcus pneumoniae): 0.5 µg/mL (≈ 1.48 µM)
- MIC (Staphylococcus aureus [2]): 0.5 µg/mL (≈ 1.48 µM)
- MIC [3]: 1 µg/mL (≈ 2.96 µM)
- MIC (Staphylococcus aureus [4]): 0.5 µg/mL (≈ 1.48 µM)

Compound: CC(=O)NC[C@@H]1OC(=O)N2c3ccc(-c4cccc([N+](=O)[O-])c4)cc3OC[C@@H]12
- MIC (Enterococcus faecalis [1]): 2 µg/mL (≈ 5.22 µM)
- MIC (Streptococcus pneumoniae): 0.5 µg/mL (≈ 1.3 µM)
- MIC (Staphylococcus aureus [2]): 0.5 µg/mL (≈ 1.3 µM)
- MIC [3]: 0.5 µg/mL (≈ 1.3 µM)
- MIC (Staphylococcus aureus [4]): 0.5 µg/mL (≈ 1.3 µM)

Compound: CC(=O)NC[C@@H]1OC(=O)N2c3ccc(-c4ccc(C#N)cc4)cc3OC[C@@H]12
- MIC (Enterococcus faecalis [1]): 1 µg/mL (≈ 2.75 µM)
- MIC (Streptococcus pneumoniae): 0.5 µg/mL (≈ 1.38 µM)
- MIC (Staphylococcus aureus [2]): 0.25 µg/mL (≈ 0.688 µM)
- MIC [3]: 0.5 µg/mL (≈ 1.38 µM)
- MIC (Staphylococcus aureus [4]): 0.5 µg/mL (≈ 1.38 µM)

Compound: CC(=O)NC[C@@H]1OC(=O)N2c3ccc(-c4ccc(C(C)=O)cc4)cc3OC[C@@H]12
- MIC (Enterococcus faecalis [1]): 1 µg/mL (≈ 2.63 µM)
- MIC (Streptococcus pneumoniae): 2 µg/mL (≈ 5.26 µM)
- MIC (Staphylococcus aureus [2]): 1 µg/mL (≈ 2.63 µM)
- MIC [3]: 0.5 µg/mL (≈ 1.31 µM)
- MIC (Staphylococcus aureus [4]): 1 µg/mL (≈ 2.63 µM)

Compound: CC(=O)NC[C@@H]1OC(=O)N2c3ccc(-c4cccc(N)c4)cc3OC[C@@H]12
- MIC (Enterococcus faecalis [1]): 1 µg/mL (≈ 2.83 µM)
- MIC (Streptococcus pneumoniae): 0.5 µg/mL (≈ 1.41 µM)
- MIC (Staphylococcus aureus [2]): 0.5 µg/mL (≈ 1.41 µM)
- MIC [3]: 1 µg/mL (≈ 2.83 µM)
- MIC (Staphylococcus aureus [4]): 1 µg/mL (≈ 2.83 µM)

Compound: CC(=O)NC[C@@H]1OC(=O)N2c3ccc(-c4ccncc4)cc3OC[C@@H]12
- MIC (Enterococcus faecalis [1]): 1 µg/mL (≈ 2.95 µM)
- MIC (Streptococcus pneumoniae): 1 µg/mL (≈ 2.95 µM)
- MIC (Staphylococcus aureus [2]): 0.5 µg/mL (≈ 1.47 µM)
- MIC [3]: 1 µg/mL (≈ 2.95 µM)
- MIC (Staphylococcus aureus [4]): 0.5 µg/mL (≈ 1.47 µM)

Compound: CC(=O)NC[C@@H]1OC(=O)N2c3ccc(-c4cccnc4)cc3OC[C@@H]12
- MIC (Enterococcus faecalis [1]): 1 µg/mL (≈ 2.95 µM)
- MIC (Streptococcus pneumoniae): 0.5 µg/mL (≈ 1.47 µM)
- MIC (Staphylococcus aureus [2]): 0.5 µg/mL (≈ 1.47 µM)
- MIC [3]: 0.5 µg/mL (≈ 1.47 µM)
- MIC (Staphylococcus aureus [4]): 0.5 µg/mL (≈ 1.47 µM)

Compound: CC(=O)NC[C@@H]1OC(=O)N2c3ccc(-c4ccc([N+](=O)[O-])nc4)cc3OC[C@@H]12
- MIC (Staphylococcus aureus [5]): 2 µg/mL (≈ 5.2 µM)
- MIC (Enterococcus faecalis [1]): 0.5 µg/mL (≈ 1.3 µM)
- MIC (Enterococcus faecalis [6]): 1 µg/mL (≈ 2.6 µM)
- MIC (Streptococcus pneumoniae): 0.5 µg/mL (≈ 1.3 µM)
- MIC [7]: 2 µg/mL (≈ 5.2 µM)
- MIC (Staphylococcus aureus [2]): 0.125 µg/mL (≈ 0.325 µM)
- MIC [3]: 0.25 µg/mL (≈ 0.65 µM)
- MIC (Enterococcus faecium): 1 µg/mL (≈ 2.6 µM)
- MIC (Staphylococcus aureus [4]): 0.25 µg/mL (≈ 0.65 µM)

Compound: CC(=O)NC[C@@H]1OC(=O)N2c3ccc(-c4ccc(N)nc4)cc3OC[C@@H]12
- MIC (Staphylococcus aureus [5]): 16 µg/mL (≈ 45.2 µM)
- MIC (Enterococcus faecalis [1]): 0.5 µg/mL (≈ 1.41 µM)
- MIC (Enterococcus faecalis [6]): 2 µg/mL (≈ 5.64 µM)
- MIC (Streptococcus pneumoniae): 0.5 µg/mL (≈ 1.41 µM)
- MIC [7]: 4 µg/mL (≈ 11.3 µM)
- MIC (Staphylococcus aureus [2]): 0.5 µg/mL (≈ 1.41 µM)
- MIC [3]: 0.5 µg/mL (≈ 1.41 µM)
- MIC (Enterococcus faecium): 2 µg/mL (≈ 5.64 µM)
- MIC (Staphylococcus aureus [4]): 0.5 µg/mL (≈ 1.41 µM)

Compound: CC(=O)NC[C@@H]1OC(=O)N2c3ccc(-c4cncnc4)cc3OC[C@@H]12
- MIC (Enterococcus faecalis [1]): 1 µg/mL (≈ 2.94 µM)
- MIC (Streptococcus pneumoniae): 1 µg/mL (≈ 2.94 µM)
- MIC (Staphylococcus aureus [2]): 0.25 µg/mL (≈ 0.735 µM)
- MIC [3]: 0.5 µg/mL (≈ 1.47 µM)
- MIC (Staphylococcus aureus [4]): 0.5 µg/mL (≈ 1.47 µM)

Compound: COc1ncc(-c2ccc3c(c2)OC[C@H]2[C@H](CNC(C)=O)OC(=O)N32)c(OC)n1
- MIC (Enterococcus faecalis [1]): 1 µg/mL (≈ 2.5 µM)
- MIC (Streptococcus pneumoniae): 1 µg/mL (≈ 2.5 µM)
- MIC (Staphylococcus aureus [2]): 1 µg/mL (≈ 2.5 µM)
- MIC [3]: 1 µg/mL (≈ 2.5 µM)
- MIC (Staphylococcus aureus [4]): 1 µg/mL (≈ 2.5 µM)

From ChEMBL document CHEMBL1914384, “Design, synthesis, and structure-activity relationship studies of highly potent novel benzoxazinyl-oxazolidinone antibacterial agents” (J Med Chem, 2011)
